Experimental data taken from US20250170252A1, “QUINONE PROTECTED FORMS AND CONJUGATES” (CAMBRIDGE ENTERPRISE LIMITED, priority 2022, published 2025).
Entries after “also recorded” stand apart in the source; their conditions may differ.

How the values were obtained:
HL-60 cells [1] = experiment: Cellular ROS detection with DCFH-DA; format: cell-based; settings: HL-60, 2′,7′-dichlorodihydrofluorescein diacetate
Experimental: To determine ROS generation by compounds in leukaemia cells, HL-60 cells were washed with PBS, then incubated in serum free media (10 mL of 1.6×10^6/mL cell concentration) with 2,7-dichlorofluorescin diacetate (DCFH-DA) at 20 μM for 30 min at 37° C. Following this, the cells were washed with PBS and resuspended in Fluorbrite-DMEM media (ThermoFisher) (10 mL). 450 μL of the cell mixture was seeded into wells of a clear flat bottomed 12 well plate, to which 50 μL of a 10× stock of the compounds in media had been already added, to achieve a final compound concentration of 50 μM. The 10× media stocks were made by 100-fold dilution of DMSO compound stocks, to ensure a final in-plate DMSO concentration of 0.1%. DMSO 0.1% only was used as a negative control. H2O2 was used as a positive control, for which 10 μL of a 30% aqueous solution was dissolved into 1 mL DMSO, then diluted 100-fold into media for plating, to give a final H2O2 concentration of […]. After plating the cells were immediately incubated at 37° C. in the dark for 15 min before the fluorescence of the wells (excitation 485 nm, emission 535 nm) was recorded (MiniMax i3x Imager, Molecular Devices). Values recorded are the mean of three repeat wells, with error bars representing the standard error of the mean.

ovine blood [2] = experiment: Methaemoglobin analysis in sheep's blood; format: cell-based; settings: in vitro ovine blood model, 1 h incubation, absorbance at 630 nm
Experimental: Defibrinated Oxoid™ sheep's blood (ThermoScientific) was diluted to a 5% v/v suspension in PBS pH 7.4. In a 96 well microtiter plate, 150 μL of blood suspension was added to 50 μL of serially diluted compound in PBS containing a 4× stock of each compound of interest. Serial dilution of compounds from DMSO stocks into PBS was performed to achieve an in-plate DMSO concentration of 0.1%. PBS buffer alone was used as a negative control. Three replicates were performed for each compound concentration analysed. The plate was incubated for the specified time at 37° C. The plate was then centrifuged at 3,500 rpm for 5 min. The supernatant was removed and cells lysed by resuspension in 100 μL of a solution of Triton-X-100 (1%) in PBS. Following this 80 μL of lysed cell contents were transferred to a second microtiter plate for UV measurement. To determine methaemoglobin increase, UV absorbance was measured immediately at 630 nm (MiniMax i3x Imager, Molecular Devices). Methaemoglobin increase was determined by (A630−A^0630)/(A^0630)×100, where A630 is the absorbance of the test well at 630 nm, and A^0630 is the absorbance of the negative control at 630 nm. Mean values and standard error of the mean of three independent replicates are plotted.

[3] = In vitro redox-cycling ability, phenol red/horseradish peroxidase assay; format: biochemical; settings: HRP/phenol-red reporter assay, absorbance at 610 nm; up to 25 μM
Experimental: In vitro redox cycling capability of compounds was assessed by phenol red/horseradish peroxidase (HRP) assay by adaption of a previously described protocol (Assay Drug Dev. Technol., 2008, 6, 505-518). Briefly, stocks were prepared as follows: (1) DTT to a concentration of 2.4 μM in PBS pH 7.4 buffer; (2) compound stocks in PBS pH 7.4 buffer to 3× the desired concentration by 1000× dilution of DMSO stocks; (3) a stock of phenol-red-HRP detection reagent containing 300 μg/mL phenol red and 180 μg/mL HRP enzyme in PBS pH 7.4 buffer; (4) a stock of 1 M NaOH in water; (5) a stock of 100 μM H2O2 in PBS prepared by addition of a 30% solution of H2O2 in water into 1000 μL of PBS. Into each well of a 96 well clear flat-bottomed plate was then added 40 μL of compound stock in PBS followed by 40 μL of DTT stock, followed immediately by 40 μL of phenol-red-HRP reagent. A positive control with 100 μM H2O2 added in place of compound was included. The plate was incubated in the dark at room temperature for 15 min. Following this 20 μL of 1 M NaOH was added to each well to terminate the reaction. Absorbance was immediately measured at 610 nm (MiniMax i3x Imager, Molecular Devices). Absorbance of treated wells was normalised to control wells treated with PBS only (zero redox cycling). All readings were performed in triplicate and error bars display standard error of the mean.

HL-60 cells [4] = experiment: N-acetyl cysteine cytotoxicity assay; format: cell-based; settings: HL-60
Experimental: For assays involving cytotoxicity of β-lapachone derivatives with and without antioxidant N—-acetyl cysteine, HL-60 cells were plated into 24 well plates at a concentration of 2.5×10^5 cells/mL in 450 μL. To each well was then added 25 μL of drug diluted in PBS to obtain the correct in-plate drug concentration, and 25 μL of PBS or a stock of N-acetyl cysteine at 12 mM in PBS. DMSO was maintained at an in-plate concentration of 0.1%. After 96 h incubation, toxicity was assessed by counting of live cells using the Trypan Blue exclusion method with a Countess II Automated Cell Counter (ThermoFisher Scientific) according to the manufacturer's instructions. Cell viability was determined by division of average live cell number of treated wells by average live cell number for control wells treated with 0.1% DMSO. […] Values recorded are the mean of three repeat wells, with error bars representing the standard error of the mean for each concentration tested.

[5] = system: range of cancer cell lines, including leukaemia, breast, colon, and cervical cancer; experiment: Toxicity to a range of cancer cell lines (panel); format: cell-based; settings: relative to parent drug 1
Experimental: Assays assessing cytotoxicity of β-lapachone and derivatives were performed by CellTiter-Blue assay (Promega) according to the manufacturer's instructions. Briefly, adherent cancer-cell lines were plated at 20,000 cells/well in 96 well plates or suspension cell lines were plated at a concentration of 2×10^5 cells/mL in 24 well plates. Compound stocks in media were made by dilution of DMSO stocks containing the compound of interest to obtain a final in-plate DMSO concentration of only 0.1%. Incubation was performed for 48 h. Following incubation, media was replaced with media containing CellTiter-Blue (Promega) in 1:10 dilution and the plates were incubated for 1.5-4 h. The fluorescence of the plates was recorded (excitation 555 nm, emission 585 nm, […] Reader, Molecular Devices). Cell viability was calculated by division of the fluorescence intensity of treated wells by that of the calculated average fluorescence intensity of replicate negative control wells containing cells with 0.1% DMSO only. Values and reported error bars represent the mean and standard error of the mean of three triplicate repeats for each concentration tested.

ovine blood [6] = experiment: Haemolysis in in vitro ovine blood model; format: cell-based, sheep; settings: compared with β-lapachone 1
HL-60 cells [7] = experiment: Lysosomal inhibition assay with small molecule prodrugs; format: cell-based; settings: HL-60, compared with untreated
Experimental: Assays to assess the effect of lysosomal activity on prodrugs were performed as follows: HL-60 cells were plated into 96 well plates at a concentration of 2.5×10^5 cells/mL in 180 μL media. Cells were treated with 10 μL of a stock of NH4Cl in PBS (to obtain an in-plate concentration of 3 or 30 mM), 10 μL of a dilution of a DMSO stock of E64d in PBS (to obtain an in-plate concentration of 30 μM), PBS only, or a dilution of DMSO in PBS. Cells were incubated for 30 min. Following this, 10 μL of a stock of test compound made by dilution of a DMSO stock into media was added. DMSO was present in-plate at a maximum of 0.2%. Cells were incubated overnight for 16 h. Following incubation, media was replaced with media containing CellTiter-Blue (Promega) in 1:4 dilution and the plates were incubated for 6 h. The fluorescence of the plates was recorded (excitation 555 nm, emission 585 nm, MiniMax i3x Reader, Molecular Devices). Cell viability was calculated by division of the fluorescence intensity of treated wells by that of the calculated average fluorescence intensity of the relevant negative control wells. Values and reported error bars represent the mean and standard error of the mean of three triplicate repeats for each concentration tested.

HL-60 = experiment: Viability assay with small molecule prodrugs, Trypan Blue exclusion, HL-60; format: cell-based
Experimental: (§1) For assays assessing cytotoxicity of β-lapachone versus small molecule dipeptide prodrugs, suspension cells were plated into 24 well plates at a density of 2.5×10^5 cells/mL in 240 μL. Serial dilutions of compound were made up in PBS. 60 μL of each stock of either PBS, or compound in PBS was added to the cells to achieve the desired final concentration. After the specified incubation time, toxicity was assessed by counting of live cells using the Trypan Blue exclusion method with a Countess II Automated Cell Counter (ThermoFisher Scientific) according to the manufacturer's instructions. Cell viability was determined by division of average live cell number of treated wells by average live cell number for control wells treated with PBS only. Values recorded are the mean of three repeat wells, with error bars representing the standard error of the mean for each concentration tested. IC50 values were calculated using GraphPad Prism software.

MOLM-13 = experiment: Viability assay with small molecule prodrugs, Trypan Blue exclusion, MOLM-13; format: cell-based; settings: MOLM-13
Experimental: as §1

Structure (SMILES) | ROS generation (HL-60 cells [1]) | methaemoglobin formation (ovine blood [2]) | redox activity (in vitro redox-cycling capability) [3] | change of IC50 upon NAC addition (HL-60 cells [4]) | decrease in toxicity [5] | haemolysis of haemoglobin (ovine blood [6]) | toxicity after lysosomal deacidification (NH4Cl) or inhibition (E64d) (HL-60 cells [7]) | IC50 relative to 1 (HL-60) | IC50 relative to 1 (MOLM-13)
CC1(C)CCC2=C(O1)c1ccccc1C(O)(Cc1ccccc1)C2=O (stereo not drawn) [Compound 24, 6-benzyl-6-hydroxy-2,2-dimethyl-2,3,4,6-tetrahydro-5H-benzo[h]chromen-5-one] | did not generate detectable ROS | did not occur | no measurable redox activity; also recorded: non-redox active | unchanged | > 20 fold | lower | – | – | –
CC1(C)CCc2c3c(c4ccccc4c2O1)OCCO3 [Compound 25, 7,7-dimethyl-2,3,5,6-tetrahydro-1,4,8-trioxatriphenylene, reference compound] | – | did not occur | no measurable redox activity | – | – | lower | – | – | –
CC(C)[C@H](NC(=O)OCc1ccccc1)C(=O)N[C@@H](CCCNC(N)=O)C(=O)Nc1ccc(CC2(O)C(=O)C3=C(OC(C)(C)CC3)c3ccccc32)cc1 (stereo partly drawn) [Compound 26, Cbz-Val-Cit-para-aminobenzyl β-lapa-ketol] | – | – | – | – | – | – | less toxic | 10 fold | 10 fold
